# In the NIST ThermoML archive (doi:10.1016/j.fluid.2015.10.035):
# Numbers after ± are expanded uncertainties.
# Tests used:
# [1] = 293.15 K; 101.33 kPa; Liquid; Vibrating tube method
# [2] = refractive index (Na D-line) (dimensionless); details: 293.15 K; 101.33 kPa; Liquid; Standard Abbe refractometry
# [3] = Boiling temperature at pressure P; details: 101.3 kPa; Liquid; Closed cell (Static) method
mass density [1] [kg/m3],refractive index [2],Boiling temperature at pressure P [3] [°C],Structure (SMILES)
782.1 ± 0.4,1.3439 ± 0.0004,81.44 ± 0.1,CC#N [acetonitrile]
786 ± 0.4,1.3773 ± 0.0004,82.34 ± 0.1,CC(C)O [propan-2-ol]
